Assay results reported in US20040254136A1, “Antisense oligonucleotides and related methods for regulating cell death” (priority 2001, published 2004).
Entries after “also recorded” stand apart in the source; their conditions may differ.

Tests used:
[1] = test system: wild-type sympathetic neurons; assay: Survival of NGF-deprived (TFD) wild-type sympathetic neurons; type: cell-based, mouse; conditions: for protection from TFD-induced death (survival): anti-NGF, BAF 50 μM, DEVD-FMK 10 μM; for protection from NGF withdrawal (survival): anti-NGF plus antisense oligonucleotides, scored daily for three days
Protocol: (§1) Sympathetic neuron cultures were prepared from 1-day-old wild-type and caspase-2−/− mouse pups (Bergeron et al. 1998). Cultures were grown in 24-well collagen-coated dishes for survival experiments and in 6-well collagen-coated dishes for RNA and protein extraction in RPMI 1640 medium plus 10% horse serum with mouse NGF (100 ng/ml). One day following plating, uridine and 5-fluorodeoxyuridine (10 μM each) were added to the cultures and left for three days to eliminate non-neuronal cells (less than 1% non-neuronal cells remain after 3 days). For survival experiments, on the sixth day following plating, NGF was removed by washing the cultures three times with RPMI 1640 medium plus 10% horse serum, followed by the addition of medium containing anti-mouse NGF (1:200, Sigma). Caspase inhibitors (Enzyme Systems Products) were added as indicated. Each culture was scored, as previously described (Troy et al., 1997), for numbers of living, phase-bright neurons present in the same field at various times. Three replicate cultures were assessed for each condition and data are normalized to numbers of neurons present in each culture at the time of NGF deprivation and reported as mean±SEM. For RNA and protein extraction on the sixth day following plating, RNA and protein were extracted using the Trizol reagent according to the manufacturer's protocol.

[2] = test system: caspase-2-null sympathetic neurons; assay: Survival of NGF-deprived (TFD) caspase-2-null sympathetic neurons; type: cell-based, mouse; conditions: caspase-2-null neurons; for protection from TFD-induced death (survival): anti-NGF, BAF 50 μM, DEVD-FMK 10 μM; for protection from NGF withdrawal (survival): anti-NGF plus antisense oligonucleotides, scored daily for three days
Protocol: as §1

MIAP3 = assay: Western blotting of MIAP3 after V-AMIAP3 treatment of PC12 cells; type: cell-based; conditions: within 5 hours
Protocol: PC12 cells were treated with V-AMIAP3 (240 nM) for 6 hours. Cells lysates containing equal amounts of protein were subjected to Western blotting using the corresponding antisera. Actin staining confirmed equal loading. These are representative blots. Similar results were obtained in 2 independent experiments.
Postnatal day 1 mouse brains were harvested in sample buffer. For antisense down-regulation studies, PC12 cells, grown as previously described, were treated with various antisense constructs for 5 hours and harvested in sample buffer. Equal amounts of protein were separated by 15% PAGE, transferred to nitrocellulose and immunostained as described (Troy et al, 2000). Anti-caspase-9 (MBL) was used at 1:1000, anti-APAF-1 (StressGen) was used at 1:1000, anti-Smac was used at 1:2000, anti-XIAP (StressGen) was used at 1:1000, anti-RAIDD (StressGen) was used at 1:500 and anti-actin (Sigma) was used at 1:200. Visualization was with ECL, using goat-anti-rabbit peroxidase at 1:1000. The relative intensities of the protein bands were quantified using Scion Image 1.55 software (NIH).

Row | Molecule | protection from TFD-induced death (survival) [1] | protection from TFD-induced death (survival) [2] | protection from NGF withdrawal (survival) [1] | protection from NGF withdrawal (survival) [2] | down-regulation of MIAP3 (MIAP3)
1 | COC(=O)CC(NC(=O)OC(C)(C)C)C(=O)CF (stereo not drawn) [BAF] | protects; also recorded: rescued | protects; also recorded: rescued | – | – | –
2 | COC(=O)CC[C@H](NC(=O)[C@H](CC(=O)OC)NC(=O)OCc1ccccc1)C(=O)N[C@H](C(=O)N[C@@H](CC(=O)OC)C(=O)CF)C(C)C [DEVD-FMK] | provided protection only for caspase-2-null neurons; also recorded: only the caspase-2-null neurons were rescued | provided protection; also recorded: rescued | – | – | –
3 | CTGCCGGTCCGCCTCGTCCAT (chemistry not given here) [V-ACasp9, PENETRATIN1™-linked antisense oligonucleotide to caspase-9] | – | – | no protection | protected | –
4 | GTTAAAAGTCATCTTCTCTGG (chemistry not given here) [V-AMIAP3, PENETRATIN1™-linked antisense oligonucleotide to MIAP3] | – | – | – | – | 70%
5 | GTTGTTGTCCATGGTCACTTT (chemistry not given here) [V-ACasp3, PENETRATIN1™-linked antisense oligonucleotide to caspase-3] | – | – | no protection | protected | –
